We go through 17 compounds from ChEMBL document CHEMBL4312011, “Synthesis and biological evaluation of triterpenoid thiazoles derived from betulonic acid, dihydrobetulonic acid, and ursonic acid” (Eur J Med Chem, 2020).

For one assay, the system named is MRC5. The assay can be described thus: Cytotoxicity against human MRC5 cells incubated for 72 hrs by MTS assay. The note with it: MRC5, 72 h. It is filed as cell-based. A general note: Tetrazolium dyes change colour on reduction, which living cells bring about.
For a further assay, the system named is U2OS. The assay is described as follows: Cytotoxicity against human U2OS cells incubated for 72 hrs by MTS assay. It is filed as functional, cell-based.
A further assay relates to BJ. The assay can be described thus: Cytotoxicity against human BJ cells incubated for 72 hrs by MTS assay. It is filed as cell-based.
The next assay has as its system A549. The assay is described as follows: Cytotoxicity against human A549 cells incubated for 72 hrs by MTS assay. The format is functional, cell-based. The note with it: A549, 72 h.
The test system of another assay is K562. The assay can be described thus: Cytotoxicity against human K562 cells incubated for 72 hrs by MTS assay. Conditions: K562, 72 h. The format is functional, cell-based.
Assay [1] can be described thus: Cytotoxicity against human K562-TAX cells incubated for 72 hrs by MTS assay. It is filed as functional, cell-based.
For assay [2], the system named is HCT-116. The assay is described as follows: Cytotoxicity against p53 knockout human HCT116 cells incubated for 72 hrs by MTS assay. The format is functional, cell-based. The note with it: HCT-116, 72 h.
Assay [3] concerns HCT-116. The assay can be described thus: Cytotoxicity against human HCT116 cells incubated for 72 hrs by MTS assay. The note with it: HCT-116, 72 h. It is filed as functional, cell-based.
The test system of the next assay is CCRF-CEM. The assay can be described thus: Cytotoxicity against human CCRF-CEM cells incubated for 72 hrs by MTS assay. It is filed as functional, cell-based.
The nature of assay [4]: Cytotoxicity against human CEM-DNR-bulk cells incubated for 72 hrs by MTS assay. The format is functional, cell-based.

Take `CCN(CC)c1nc2c(s1)C[C@]1(C)[C@H]3CC=C4[C@@H]5[C@@H](C)[C@H](C)CC[C@]5(C(=O)O)CC[C@@]4(C)[C@]3(C)CC[C@H]1C2(C)C`: the 50% inhibitory concentration (IC50) (in the assay with MRC5; in the assay with U2OS; in the assay on BJ; in the assay on A549; in the assay on K562; in assay [1]) was greater than 50 µM throughout. Also, the IC50 (usually the concentration needed to halve the response being measured) was greater than 50 µM with HCT-116 [2], 41.3 µM with HCT-116 [3], 26.6 µM in the assay with CCRF-CEM and greater than 50 µM in assay [4].
With `C[C@H]1[C@H](C)CC[C@]2(C(=O)O)CC[C@]3(C)C(=CC[C@@H]4[C@@]5(C)Cc6sc(N7CCN(C)CC7)nc6C(C)(C)[C@@H]5CC[C@]43C)[C@H]12`, the IC50 (in the assay with MRC5; with U2OS; in the assay with BJ; with A549; in the assay on K562; in assay [1]) was greater than 50 µM each time. In addition, the IC50 in the assay on HCT-116 [2] was greater than 50 µM; with HCT-116 [3] it was greater than 50 µM; with CCRF-CEM it was 47.6 µM; in assay [4], greater than 50 µM.
Consider `C[C@H]1[C@H](C)CC[C@]2(C(=O)O)CC[C@]3(C)C(=CC[C@@H]4[C@@]5(C)Cc6sc(NC7CCCCC7)nc6C(C)(C)[C@@H]5CC[C@]43C)[C@H]12`, for which the IC50 (in the assay on MRC5; with U2OS; with BJ; in the assay on A549; in the assay with K562; in assay [1]) was greater than 50 µM each time. For the same compound, the IC50 in the assay on HCT-116 [2] is greater than 50 µM; in the assay with HCT-116 [3], greater than 50 µM; in the assay on CCRF-CEM it was 19.4 µM; in assay [4], greater than 50 µM.
As for `C[C@H]1[C@H](C)CC[C@]2(C(=O)O)CC[C@]3(C)C(=CC[C@@H]4[C@@]5(C)CCC(=O)C(C)(C)[C@@H]5CC[C@]43C)[C@H]12` [URSONIC ACID], the IC50 with MRC5 is greater than 50 µM; with U2OS, greater than 50 µM; with BJ, greater than 50 µM; in the assay with A549 it was greater than 50 µM; in the assay on K562, greater than 50 µM; in assay [1], 35.5 µM. Also, the IC50 with HCT-116 [2] is greater than 50 µM; in the assay on HCT-116 [3], 49.7 µM; in the assay on CCRF-CEM, 10.4 µM; in assay [4] it was 34 µM.
In the case of `C=C(C)[C@@H]1CC[C@]2(C(=O)O)CC[C@]3(C)[C@H](CC[C@@H]4[C@@]5(C)Cc6sc(N7CCOCC7)nc6C(C)(C)[C@@H]5CC[C@]43C)[C@@H]12`, the IC50 is greater than 50 µM with MRC5; greater than 50 µM in the assay with U2OS; greater than 50 µM with BJ; greater than 50 µM in the assay on A549; 11.2 µM with K562; greater than 50 µM in assay [1]. For the same compound, the IC50 with HCT-116 [2] is greater than 50 µM; with HCT-116 [3], greater than 50 µM; in the assay on CCRF-CEM, 7.2 µM; in assay [4], greater than 50 µM.
Take `CCN(CC)c1nc2c(s1)C[C@]1(C)[C@H]3CC[C@@H]4[C@H]5[C@H](C(C)C)CC[C@]5(C(=O)O)CC[C@@]4(C)[C@]3(C)CC[C@H]1C2(C)C`: the IC50 with MRC5 is greater than 50 µM; in the assay on U2OS, 45.8 µM; with BJ it was greater than 50 µM; in the assay on A549 it was greater than 50 µM; with K562, 16.3 µM; in assay [1], greater than 50 µM. The IC50 in the assay with HCT-116 [2] was greater than 50 µM; with HCT-116 [3], greater than 50 µM; with CCRF-CEM, 19.7 µM; in assay [4], greater than 50 µM.
Turning to `C=C(C)[C@@H]1CC[C@]2(C(=O)O)CC[C@]3(C)[C@H](CC[C@@H]4[C@@]5(C)CC(Br)C(=O)C(C)(C)[C@@H]5CC[C@]43C)[C@@H]12` (stereo not given in full), the IC50 with MRC5 turned out to be 20.4 µM; in the assay on U2OS, 23.4 µM; with BJ, 33.5 µM; in the assay with A549, 24 µM; in the assay with K562 it was 35.5 µM; in assay [1], 23.5 µM. For the same compound, the IC50 with HCT-116 [2] is 32.7 µM; in the assay on HCT-116 [3], 31.1 µM; in the assay on CCRF-CEM it was 3 µM; in assay [4], 17.9 µM.
In the case of `CC(C)[C@@H]1CC[C@]2(C(=O)O)CC[C@]3(C)[C@H](CC[C@@H]4[C@@]5(C)CCC(=O)C(C)(C)[C@@H]5CC[C@]43C)[C@@H]12` [DIHYDROBETULONIC ACID], the IC50 in the assay on MRC5 is greater than 50 µM; in the assay with U2OS, 27.5 µM; with BJ, greater than 50 µM; with A549, 22.2 µM; in the assay with K562, 11.6 µM; in assay [1] it was 11.1 µM. The 50% inhibitory concentration (IC50) in the assay on HCT-116 [2] stood at 36.4 µM; with HCT-116 [3] it was 33.5 µM; in the assay on CCRF-CEM, 6.2 µM; in assay [4] it was 48.3 µM.
On to `C[C@H]1[C@H](C)CC[C@]2(C(=O)O)CC[C@]3(C)C(=CC[C@@H]4[C@@]5(C)Cc6sc(N7CCCCC7)nc6C(C)(C)[C@@H]5CC[C@]43C)[C@H]12`, for which the IC50 (with MRC5; with U2OS; with BJ; in the assay on A549; in the assay with K562; in assay [1]) was greater than 50 µM each time. The IC50 in the assay on HCT-116 [2] is greater than 50 µM; with HCT-116 [3], greater than 50 µM; in the assay on CCRF-CEM, 22 µM; in assay [4], greater than 50 µM.
For `CC(C)[C@@H]1CC[C@]2(C(=O)O)CC[C@]3(C)[C@H](CC[C@@H]4[C@@]5(C)CC(Br)C(=O)C(C)(C)[C@@H]5CC[C@]43C)[C@@H]12` (stereo not given in full), the IC50 with MRC5 turned out to be 8 µM; in the assay on U2OS it was 10 µM; in the assay on BJ, 21.8 µM; with A549 it was 15.2 µM; in the assay on K562 it was 0.7 µM; in assay [1] it was 5.1 µM. Further, the concentration for half-maximal inhibition (IC50) in the assay with HCT-116 [2] is 5.2 µM; in the assay on HCT-116 [3], 1 µM; in the assay on CCRF-CEM, 3.1 µM; in assay [4], 15.6 µM.
`C=C(C)[C@@H]1CC[C@]2(C(=O)O)CC[C@]3(C)[C@H](CC[C@@H]4[C@@]5(C)Cc6sc(N7CCCC7)nc6C(C)(C)[C@@H]5CC[C@]43C)[C@@H]12`: the IC50 was greater than 50 µM with MRC5; greater than 50 µM in the assay with U2OS; greater than 50 µM with BJ; greater than 50 µM in the assay with A549; greater than 50 µM with K562; 22.9 µM in assay [1]. Besides, the IC50 in the assay on HCT-116 [2] is greater than 50 µM; in the assay on HCT-116 [3], greater than 50 µM; in the assay with CCRF-CEM, 7 µM; in [4], greater than 50 µM.
For the compound `CC1(C)CC[C@]2(C(=O)O)CC[C@]3(C)C(=CC[C@@H]4[C@@]5(C)CCC(=O)C(C)(C)[C@@H]5CC[C@]43C)[C@@H]2C1` [OLEANONIC ACID], the IC50 in the assay with MRC5 was greater than 50 µM; in the assay on U2OS, 48.5 µM; with BJ, greater than 50 µM; with A549 it was 49.5 µM; in the assay with K562, greater than 50 µM; in assay [1] it was 21.5 µM. The IC50 with HCT-116 [2] is greater than 50 µM; with HCT-116 [3], 45.1 µM; in the assay with CCRF-CEM, 15.1 µM; in [4] it was 17.4 µM.
For `C[C@H]1[C@H](C)CC[C@]2(C(=O)O)CC[C@]3(C)C(=CC[C@@H]4[C@@]5(C)Cc6sc(N7CCOCC7)nc6C(C)(C)[C@@H]5CC[C@]43C)[C@H]12`, the IC50 in the assay on MRC5 is greater than 50 µM; in the assay on U2OS, 29.1 µM; in the assay with BJ it was greater than 50 µM; in the assay on A549, 28.8 µM; with K562, 8.6 µM; in assay [1], 29.7 µM. Moreover, the IC50 in the assay with HCT-116 [2] came out at 37.9 µM; with HCT-116 [3], 23.6 µM; in the assay on CCRF-CEM it was 8.5 µM; in assay [4], 23.8 µM.
For the compound `C=C(C)[C@@H]1CC[C@]2(C(=O)O)CC[C@]3(C)[C@H](CC[C@@H]4[C@@]5(C)Cc6sc(N7CCCCC7)nc6C(C)(C)[C@@H]5CC[C@]43C)[C@@H]12`, the IC50 is 50 µM in the assay with MRC5; greater than 50 µM in the assay with U2OS; greater than 50 µM in the assay with BJ; greater than 50 µM with A549; 35.9 µM in the assay with K562; greater than 50 µM in assay [1]. Also, the IC50 was greater than 50 µM in the assay on HCT-116 [2], greater than 50 µM with HCT-116 [3], 9.3 µM in the assay with CCRF-CEM and greater than 50 µM in assay [4].
With `C[C@H]1[C@H](C)CC[C@]2(C(=O)O)CC[C@]3(C)C(=CC[C@@H]4[C@@]5(C)Cc6sc(N)nc6C(C)(C)[C@@H]5CC[C@]43C)[C@H]12`, the IC50 is greater than 50 µM in the assay on MRC5; 49.6 µM in the assay on U2OS; greater than 50 µM with BJ; greater than 50 µM with A549; greater than 50 µM with K562; 33.1 µM in [1]. In addition, the IC50 is greater than 50 µM in the assay on HCT-116 [2], 43 µM in the assay with HCT-116 [3], 19 µM in the assay with CCRF-CEM and 29.5 µM in assay [4].
For the compound `C=C(C)[C@@H]1CC[C@]2(C(=O)O)CC[C@]3(C)[C@H](CC[C@@H]4[C@@]5(C)CCC(=O)C(C)(C)[C@@H]5CC[C@]43C)[C@@H]12` [BETUNOLIC ACID], the IC50 in the assay on MRC5 was 29.5 µM; in the assay on U2OS, 38 µM; with BJ, 39.5 µM; in the assay on A549, 40 µM; in the assay on K562, 13.6 µM; in assay [1], 14.9 µM. The IC50 with HCT-116 [2] is 49.4 µM; in the assay on HCT-116 [3], 38.1 µM; in the assay with CCRF-CEM, 8.4 µM; in [4], 11.2 µM.
For the compound `C=C(C)[C@@H]1CC[C@]2(C(=O)O)CC[C@]3(C)[C@H](CC[C@@H]4[C@@]5(C)Cc6sc(N(CC)CC)nc6C(C)(C)[C@@H]5CC[C@]43C)[C@@H]12`, the 50% inhibitory concentration (IC50) in the assay on MRC5 was 23.3 µM; in the assay on U2OS it was greater than 50 µM; in the assay with BJ it was greater than 50 µM; in the assay on A549, greater than 50 µM; in the assay with K562, 29.5 µM; in assay [1], 46.8 µM. Besides, the IC50 in the assay with HCT-116 [2] was 31.6 µM; in the assay with HCT-116 [3] it was greater than 50 µM; in the assay on CCRF-CEM, 8.5 µM; in assay [4], greater than 50 µM.
